One block for each molecule: values may come before it. Where a SMILES comes first, the peptide text is derived from it.
Target: T1, porcine pancreas PLA2 (Sus scrofa, UniProt P00592)
T1 construct: purchased Sigma Chemical Co. P6534; host or cells: porcine pancreas
Experiment: PLA2-inhibiting activity (release of [1-14C] arachidonic acid from labelled phosphatidylcholine)
Format: biochemical
Settings: for Inhibition ratio (Inhibition rate of test compound/Inhibition rate of Compound (IV)): Amount of sample: 100 mg, relative to Compound (IV) = 1.00
Procedure: A test compound was dissolved in 280 μl of 0.1M Tris-hydrochloride buffer (pH 8.8) containing 10 mM calcium chloride. To the solution was added a solution of 20 ng of porcine pancreas PLA2 (Sigma Chemical Co., catalog No. P6534) in 10 μl of the buffer having the same composition as above, followed by incubation at 37° C. for 10 minutes. To the resulting mixture was added a solution of 0.1 μCi of α-palmitoyl-β[1-^14 C] arachidonylphosphatidylcholine (54 μCi/μmol, NEN Research Products Co.) in 10 μl of the same buffer as above wherein micelles were formed, followed by incubation at 37° C. for 10 minutes. Then, 3 ml of a Dale reagent solution [2-propanol :n-heptane :1M sulfuric acid=40:10:1 v/v mixture; Methods in Enzymology 14, 167 (1969)] was added to stop the reaction, and 1.5 ml of n-heptane and 1 ml of water were added, followed by shaking. Radioactivity of the free [1-^14 C] arachidonic acid extracted to the heptane layer was measured. The value of this specific radioactivity is referred to as "a". Further, "b" and "c" refer to the specific radioactivity of the heptane layer obtained by adding the same amount of the buffer in place of the test compound solution and that of the heptane layer obtained by adding the same amount of the buffer in place of the test compound and PLA2, respectively. The inhibition rate (x) was calculated by the following equation: [formula]

T1 sequence (P00592 23-146): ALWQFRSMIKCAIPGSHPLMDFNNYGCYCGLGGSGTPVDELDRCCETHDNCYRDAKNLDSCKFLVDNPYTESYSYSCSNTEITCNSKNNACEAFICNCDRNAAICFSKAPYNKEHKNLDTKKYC

Inhibition ratio (Inhibition rate of test compound/Inhibition rate of Compound (IV)): 0.20
Molecule: CC[C@H](C)[C@H](N)C(=O)N[C@@H](CCCCN)C(=O)N[C@@H](C)C(=O)N[C@@H](C)C(=O)N[C@@H](Cc1ccc(O)cc1)C(=O)N[C@@H](CC(C)C)C(=O)N[C@@H](CCC(N)=O)C(=O)N[C@@H](CCC(=O)O)C(=O)N[C@H](C(=O)NCC(=O)N[C@@H](CCCCN)C(=O)N1CCC[C@H]1C(=O)N[C@@H](CC(C)C)C(=O)N[C@@H](CC(=O)O)C(=O)N[C@@H](CCC(=O)O)C(=O)N[C@H](C(=O)N[C@@H](CC(C)C)C(=O)N[C@@H](CCCCN)C(=O)N[C@@H](CCCCN)C(=O)N[C@@H](C)C(=O)N[C@@H](CC(C)C)C(=O)N[C@H](C(=O)NCC(=O)N[C@@H](Cc1c[nH]cn1)C(=O)N[C@@H](CC(C)C)C(=O)N[C@@H](CCC(=O)O)C(=O)O)[C@@H](C)O)[C@@H](C)O)[C@@H](C)O [III] (H-IKAAYLQETGKPLDETLKKALTGHLE-OH)

PLA2-inhibiting activity (in words): medium
Inhibition ratio (Inhibition rate of test compound/Inhibition rate of Compound (IV)): 1.00
Molecule: CC(C)C[C@H](NC(=O)[C@H](C)NC(=O)[C@H](CCCCN)NC(=O)[C@H](CCCCN)NC(=O)[C@H](CC(C)C)NC(=O)[C@@H](NC(=O)[C@H](CCC(=O)O)NC(=O)[C@H](CC(=O)O)NC(=O)[C@H](CC(C)C)NC(=O)[C@@H]1CCCN1C(=O)[C@@H](N)CCCCN)[C@@H](C)O)C(=O)N[C@H](C(=O)NCC(=O)N[C@@H](Cc1c[nH]cn1)C(=O)N[C@@H](CC(C)C)C(=O)N[C@@H](CCC(=O)O)C(=O)O)[C@@H](C)O [IV] (H-KPLDETLKKALTGHLE-OH)

Inhibition ratio (Inhibition rate of test compound/Inhibition rate of Compound (IV)): 1.06
Molecule: CC[C@H](C)[C@H](NC(=O)[C@H](C)NC(=O)[C@@H](NC(=O)[C@H](CC(C)C)NC(=O)[C@H](CS)NC(=O)[C@@H](N)CCCCN)[C@@H](C)O)C(=O)N[C@H](C(=O)N[C@@H](CCCCN)C(=O)N[C@@H](CS)C(=O)N[C@@H](C)C(=O)N[C@H](C(=O)N[C@@H](CO)C(=O)N[C@@H](CCCCN)C(=O)N1CCC[C@H]1C(=O)N[C@@H](C)C(=O)O)[C@@H](C)O)C(C)C [VIII] (H-KCLTAIVKCATSKPA-OH; N-terminus and C-terminus assumed)

Inhibition ratio (Inhibition rate of test compound/Inhibition rate of Compound (IV)): 0.56
Molecule: CC[C@H](C)[C@H](N)C(=O)N[C@@H](CCC(=O)O)C(=O)N[C@H](C(=O)N[C@@H](CC(C)C)C(=O)N[C@@H](C)C(=O)N[C@@H](CO)C(=O)N[C@@H](CCCNC(=N)N)C(=O)N[C@H](C(=O)N[C@@H](CC(N)=O)C(=O)N[C@@H](CCCCN)C(=O)N[C@@H](CCC(=O)O)C(=O)N[C@H](C(=O)N[C@@H](CCCNC(=N)N)C(=O)N[C@@H](CC(=O)O)C(=O)N[C@H](C(=O)O)[C@@H](C)CC)[C@@H](C)CC)[C@@H](C)O)[C@@H](C)CC [V] (H-IEILASRTNKEIRDI-OH)

IC50 compared with that of lipocortin (in words): almost equal to that of lipocortin
IC50 (read-out: IC50 (concentration required for inhibiting the PLA2 activity by 50%) (converted)): 1070 nM
Molecule: CC[C@H](C)[C@H](N)C(=O)N[C@@H](CCCCN)C(=O)N[C@@H](C)C(=O)N[C@@H](Cc1ccccc1)C(=O)N[C@@H](Cc1ccc(O)cc1)C(=O)N[C@@H](CCC(N)=O)C(=O)N[C@@H](CCCCN)C(=O)N[C@@H](CCSC)C(=O)N[C@@H](Cc1ccc(O)cc1)C(=O)NCC(=O)N[C@H](C(=O)N[C@@H](CO)C(=O)N[C@@H](CC(C)C)C(=O)N[C@@H](CS)C(=O)N[C@@H](CCC(N)=O)C(=O)N[C@@H](C)C(=O)O)[C@@H](C)CC [XII] (H-IKAFYQKMYGISLCQA-OH)

Inhibition ratio (Inhibition rate of test compound/Inhibition rate of Compound (IV)): 1.19
Molecule: CC[C@H](C)[C@H](NC(=O)[C@H](CCCNC(=N)N)NC(=O)[C@@H](NC(=O)[C@H](CC(C)C)NC(=O)[C@H](C)NC(=O)[C@H](CCCCN)NC(=O)[C@H](Cc1c[nH]cn1)NC(=O)[C@H](CCCNC(=N)N)NC(=O)[C@@H](NC(=O)CNC(=O)[C@@H](NC(=O)CN)C(C)C)[C@@H](C)O)[C@@H](C)CC)C(=O)N[C@@H](CCSC)C(=O)N[C@H](C(=O)N[C@@H](CO)C(=O)N[C@@H](CCCNC(=N)N)C(=O)O)C(C)C [X] (H-GVGTRHKALIRIMVSR-OH; N-terminus and C-terminus assumed)

IC50 (concentration required for inhibiting the PLA2 activity by 50%): 1.5 µg/mL
B1: rLC: lipocortin prepared using Escherichia coli according to the method of Wallner, et al. (protein, UniProt P04083 2-346, looked up)
Annexin A1: AMVSEFLKQAWFIENEEQEYVQTVKSSKGGPGSAVSPYPTFNPSSDVAALHKAIMVKGVDEATIIDILTKRNNAQRQQIKAAYLQETGKPLDETLKKALTGHLEEVVLALLKTPAQFDADELRAAMKGLGTDEDTLIEILASRTNKEIRDINRVYREELKRDLAKDITSDTSGDFRNALLSLAKGDRSEDFGVNEDLADSDARALYEAGERRKGTDVNVFNTILTTRSYPQLRRVFQKYTKYSKHDMNKVLDLELKGDIEKCLTAIVKCATSKPAFFAEKLHQAMKGVGTRHKALIRIMVSRSEIDMNDIKAFYQKMYGISLCQAILDETKGDYEKILVALCGGN
modifications: recombinant, E. coli

Source: patent US4895931A, “Phospholipase A2 -inhibiting peptides” (Kyowa Hakko Kogyo Co., Ltd., priority 1988, dated 1990)
